Source: patent US5606037A, “Processes antineoplastic heteronaphthoquinones” (BioChem Pharma Inc., priority 1995, dated 1997)
Where a name gives a salt, the structure may show the parent alone.

Assays:
Format in all cases: cell-based, Human
[1] = system: HT 29 (Colon adenocarcinoma); experiment: In vitro cytotoxicity, microculture tetrazolium (MTT) assay, HT29; settings: further 48 h, Table 1
How it was run: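 HT29 cells exposed to compound (1:3 series, 100 μM to 1.7 nM, quadruplicate) for 48 h at 37 °C, then 48 h in fresh medium. Viability by MTT reduction, formazan absorbance at 570 nm; four-parameter logistic fit on 0-100% survival scale.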

[2] = system: T47D (Ductal carcinoma of breast); experiment: In vitro cytotoxicity, microculture tetrazolium (MTT) assay, T47D; settings: 48 h with compound, further 48 h, Table 1
How it was run: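 Adherent cells (1,500-4,000/well) were exposed to compound in 1:3 dilutions from 100 μM to 1.7 nM, in quadruplicate, for 48 h at 37° C, followed by 48 h in fresh medium. MTT formazan was read at 570 nm, and data were fitted by four-parameter logistic on a 0-100% survival scale.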

Lox (Melanoma) = experiment: In vitro cytotoxicity, microculture tetrazolium (MTT) assay, LOX; settings: 48 h with compound, further 48 h, Table 1
How it was run: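 LOX melanoma cells, 1,500–4,000 per well, exposed to compound (1:3 dilutions, 100 μM to 1.7 nM) for 48 h at 37° C., then 48 h in fresh medium. MTT reduction read at 570 nm; four-parameter logistic fit normalized to 0–100% survival.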

[3] = system: SKOV3 (Ovarian adenocarcinoma); experiment: In vitro cytotoxicity, microculture tetrazolium (MTT) assay, SKOV3; settings: for IC50: SKOV3 ovarian adenocarcinoma, 48 h with compound, further 48 h, MTT, Table 1
How it was run: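 Cells plated overnight, then exposed to compound (1:3 dilutions, 100 μM to 1.7 nM, quadruplicate) 48 h at 37 °C, followed by 48 h in fresh medium. MTT 4 h, formazan extracted in DMSO/Sorensen's buffer pH 10.5, A570; four-parameter logistic fit on 0–100% survival scale.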

VLB/OV3 = experiment: Resistance ratio of SKVLB over SKOV3 cytotoxicity (VLB/OV3); settings: ratio SKVLB to SKOV3; Table 1; 2880 min
Method: The microculture tetrazolium assay was used to test in vitro cytotoxicity. This assay is described in Plumb, J. A. et al., 1989 Cancer Research 49, 4435-4440, which is herein incorporated by reference. The cytotoxicity of compounds towards tumor cells is measured in vitro using the assay. This assay method is based upon the ability of live, but not dead cells to reduce the yellow water soluble dye 3-(4,5-dimethylthiazol-2-yl)-2,5-diphenyltetrazolium bromide (MTT) to its water insoluble purple formazan product.
SKOV3 (Ovarian adenocarcinoma)--provided by Dr. V. Ling, Ontario Cancer Institute.
SKVLB (Ovarian; multidrug resistant)--Dr. V. Ling, Ontario Cancer Institute.
For each assay, doxorubicin is included as an inter-assay standard. This allows us to monitor the behaviour of the assay in general, and in particular, to check that the SKVLB line has maintained its resistant phenotype.
Cells are plated out in 100 μl of culture medium in the microtiter plates at a density of around 1,500-4,000 cells per well. The plates are incubated overnight to allow the cells to become adherent after which the test compound is added (100 μl of appropriate dilution per well). The cells are incubated with test compound at 37° C. for 48 h after which the compound is replaced with fresh medium. After a further 48 h incubation at 37° C., 50 μl of MTT solution (2 mg/ml) is added to each well. The plates are incubated in the dark for 4 h at 37° C. after which the medium is removed. The MTT formazan product is extracted from the cells by the addition of 200 μl DMSO followed by 50 μl of Sorensen's buffer. The plates are shaken briefly and the absorbance at 570 nm is read using a Molecular Devices UV max plate reader. Curves are fit to the MTT assay data using a four parameter logistic equation, and the data are normalized to fit a 0% to 100% survival scale.

[4] = system: SKVLB (Ovarian; multidrug resistant); experiment: In vitro cytotoxicity, microculture tetrazolium (MTT) assay, SKVLB; settings: for IC50: SKVLB multidrug resistant ovarian, 48 h with compound, further 48 h, MTT, Table 1
How it was run: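 Multidrug-resistant SKVLB ovarian cells, 1,500–4,000 per well, exposed to compound (1:3 dilutions, 100 μM to 1.7 nM, quadruplicate) for 48 h at 37 °C, then 48 h in fresh medium. Viability by MTT reduction, formazan read at 570 nm; four-parameter logistic fit on a 0–100% survival scale.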

[5] = Homo sapiens, HT-29, 48 h with compound

C=CC[C@@H]1CC2=C(C(=O)c3ccccc3C2=O)[C@@H](O[C@H]2C[C@H](NC(=O)C(F)(F)F)[C@H](O)[C@H](C)O2)O1 (mixture of isomers) [BCH2031, (1'S,1S,3S) and (1'S,1-R,3-R)-3-([2',3',6'-trideoxy-3'-trifluoroacetamido-4'-hydroxy-L-lyhohexopyranose]-5,10-dioxo-3,4,5,10-tetrahydronaphtho-[2,3-c]-pyran-3-yl)-propene]
IC50 ([1]; 48 h with compound): 8.5 µM | IC50 [2]: 16 µM | IC50 (Lox (Melanoma)): 2.8 µM | IC50 [3]: 6 µM | VLB/OV3 (VLB/OV3): 3

CC(=O)C1CC2=C(C(=O)c3ccccc3C2=O)C(OC[C@@H]2CCCN2C(=O)OC(C)(C)C)O1 (mixture of isomers) [BCH2067, (1S, 2'S, 3R) and (1R, 2'S, 3S)-methyl-(1-[O-N-BOC-prolinol]-5,10-dioxo-3,4,5,10-tetrahydro-1-H-naphtho[2,3-C]pyran-3-yl) ketone]
IC50 [1, 5]: 0.323 µM | IC50 ([2]; Homo sapiens): 0.54 µM | IC50 (Lox (Melanoma); Homo sapiens): 1.1 µM | IC50 ([3]; Homo sapiens, SK-OV-3): 1.2 µM | VLB/OV3 (VLB/OV3): 2

CC(=O)C1CC2=C(C(=O)c3ccccc3C2=O)C(OCC2CCCCN2)O1 (racemic) [BCH2069, Methyl-(1-O-[2'-piperidinemethanol]-5,10-dioxo-3,4,5,10-tetrahydronaphthaleno-[2,3-c]pyran-3-yl) ketone, racemic, hydrochloride]
IC50 [1, 5]: 0.35 µM | IC50 ([2]; Homo sapiens): 1.11 µM | IC50 (Lox (Melanoma); Homo sapiens): 0.0903 µM | IC50 ([3]; Homo sapiens, SK-OV-3): 0.0494 µM | IC50 ([4]; Homo sapiens): 0.083 to 0.483 µM | VLB/OV3 (VLB/OV3): 2-9.78

CO[C@@H]1O[C@@H](C(=O)Nc2ccccc2)CC2=C1C(=O)c1ccccc1C2=O (relative stereo) [BCH2041, (1,3-trans)-anline-(1-methoxy-5,10-dioxo-3,4,5,10-tetrahydro-1H-naphtho-[2,3-c]-pyran)-3-carboxamide]
IC50 [1, 5]: 1.9 µM | IC50 ([2]; Homo sapiens): 5.62 µM | IC50 (Lox (Melanoma); Homo sapiens): 1.9 µM | IC50 ([3]; Homo sapiens, SK-OV-3): 2.14 µM | IC50 ([4]; Homo sapiens): 10 µM | VLB/OV3 (VLB/OV3): 5

CO[C@@H]1O[C@@H](C(=O)O)CC2=C1C(=O)c1ccccc1C2=O (relative stereo) [BCH2045, (1,3-trans)-1-methoxy-3-carboxyl-5,10-dioxo-3,4,5,10-tetrahydro-1H-naphtho-[2,3-c]-pyran]
IC50 [1, 5]: 1.11 µM | IC50 ([2]; Homo sapiens): 13 µM | IC50 (Lox (Melanoma); Homo sapiens): 4.6 µM | IC50 ([3]; Homo sapiens, SK-OV-3): 5.3 µM | IC50 ([4]; Homo sapiens): 15 µM | VLB/OV3 (VLB/OV3): 3

CC(=O)[C@@H]1CC2=C(C(=O)c3ccccc3C2=O)[C@@H](O[C@H]2C[C@H](NC(=O)C(F)(F)F)[C@H](O)[C@H](C)O2)O1 [BCH1184, (1'S,1R,3S)-Methyl (5,10-dioxo-1-(2',3',6'-trideoxy-3'-trifluoroacetamido-4'-hydroxy-L-lyxohexopyranose)-3,4,5,10-tetrahydronaphtho [2,3-C]pyran-3-yl) ketone]
IC50 [1, 5]: 0.0023 to 0.0161 µM | IC50 ([2]; Homo sapiens): 0.284 to 0.53 µM | IC50 (Lox (Melanoma); Homo sapiens): 0.0186 to 0.228 µM | IC50 ([3]; Homo sapiens, SK-OV-3): 0.005 to 0.0631 µM | IC50 ([4]; Homo sapiens): 0.0536 to 0.3 µM | VLB/OV3 (VLB/OV3): 4.75-22.34

COP(=O)(CC(=O)[C@H]1CC2=C(C(=O)c3ccccc3C2=O)[C@H](O[C@H]2C[C@H](NC(=O)C(F)(F)F)[C@H](O)[C@H](C)O2)O1)OC [BCH1690, (1'S,1S,3R)-1-(2',3',6'-trideoxy-3'-trifluoroacetamido-L-lyxohexopyranose)-3-dimethylphosphonoacetyl-5,10-dioxo-3,4,5-10-tetrahydro-1H-naphtho-[2,3-c]-pyran]
VLB/OV3 (VLB/OV3): 7.70

CC[C@@H]1CC2=C(C(=O)c3ccccc3C2=O)[C@@H](O[C@H]2C[C@H](NC(=O)C(F)(F)F)[C@H](O)[C@H](C)O2)O1 [BCH2026, (1'S, 1R, 3R)-5,10-dioxo-3-ethyl-1-(2',3',6'-trideoxy-3'-trifluoroacetamido-L-lyxohexopyranose)-3,4,5,10-tetrahydro-1H-naphtho-[2,3-c]pyran]
IC50 [1, 5]: 22 µM | IC50 ([2]; Homo sapiens): 31.4 µM | IC50 (Lox (Melanoma); Homo sapiens): 2.12 µM | IC50 ([3]; Homo sapiens, SK-OV-3): 15 µM | IC50 ([4]; Homo sapiens): > 100 µM | VLB/OV3 (VLB/OV3): > 7

COC1OC(C(=O)NCCCN(C)C)=CC2=C1C(=O)c1ccccc1C2=O (stereo not shown) [BCH2051, 1-Methoxy-5,10-dioxo-5,10-dihydro-1H-naphtho[2,3-c]pyran-3-[N-(3-dimethylamino-propyl)carboxamide] hydrochloride monohydrate]
IC50 [1, 5]: 0.091 to 0.134 µM | IC50 ([2]; Homo sapiens): 0.0419 to 0.0685 µM | IC50 (Lox (Melanoma); Homo sapiens): 0.0167 to 0.03 µM | IC50 ([3]; Homo sapiens, SK-OV-3): 0.0073 to 0.029 µM | in vitro antitumor potency ([3]; in vitro, Tables 1 and 2): intense in vitro antitumor potency | IC50 ([4]; Homo sapiens): 0.0675 to 0.403 µM | multidrug resistance / effect in multidrug resistant cell line SKVLB ([4]; SKVLB cell line): significantly avoiding multidrug resistance | VLB/OV3 (VLB/OV3): 9.3-14.14

CC(C)[C@H]1CC2=C(C(=O)c3ccccc3C2=O)[C@H](O[C@H]2C[C@H](NC(=O)C(F)(F)F)[C@H](O)[C@H](C)O2)O1 [BCH2052, (1'S, 1S, 3R)-5,10-dioxo-3-isopropyl-1-(2',3',6'-trideoxy-3'-trifluoroacetamido-L-lyxohexopyranose)-3,4,5,10-tetrahydro-1H-naphtho-[2,3-c]-pyran]
IC50 [1, 5]: 10.6 to 15.4 µM | IC50 ([2]; Homo sapiens): 9.54 to 23.3 µM | IC50 (Lox (Melanoma); Homo sapiens): 3.04 to 3.22 µM | IC50 ([3]; Homo sapiens, SK-OV-3): 5.4 to 7.01 µM | IC50 ([4]; Homo sapiens): 20.5 to 28.2 µM | VLB/OV3 (VLB/OV3): 3.78-4.02

CO[C@H]1C[C@H](O[C@@H]2O[C@@H](C(C)=O)CC3=C2C(=O)c2ccccc2C3=O)O[C@@H](C)[C@H]1OS(C)(=O)=O [BCH2072, (1'-S, 1'S, 3-R)-methyl-(1-[2',3',4',6' tetradeoxy-3'-methoxy-4'-O-methanesulfonyl-L-lyxohexopyranose)-5,10-dioxo-3,4,5,10 tetrahydronaphtho-[2,3-c]pyran-3-yl) ketone]
IC50 [1, 5]: 0.0539 to 0.101 µM | IC50 ([2]; Homo sapiens): 0.0236 to 0.35 µM | IC50 (Lox (Melanoma); Homo sapiens): 0.102 µM | IC50 ([3]; Homo sapiens, SK-OV-3): 0.0641 to 0.113 µM | IC50 ([4]; Homo sapiens): 0.315 to 0.991 µM | VLB/OV3 (VLB/OV3): 2.79-15.46

CC(=NO)[C@@H]1CC2=C(C(=O)c3ccccc3C2=O)[C@@H](O[C@H]2C[C@H](NC(=O)C(F)(F)F)[C@H](O)[C@H](C)O2)O1 [BCH2115, (1'S, 1R, 3S)-3 (oximoethyl)-5,10-dioxo-1 (2,3,6-trideoxy-3-trifluoroacetamido-L-lyxohexopyranose)-3,4,5,10-tetrahydro-1H-naphtho-(2,3-c)-pyran]
IC50 ([1]; 48 h with compound): 5.6 µM | IC50 [2]: 5.3 µM | IC50 (Lox (Melanoma)): 4 µM | IC50 [3]: 2.3 µM | VLB/OV3 (VLB/OV3): > 50

CC(=O)C1CC2=C(C(=O)c3ccccc3C2=O)C(OC2CC(NC(=O)C(F)(F)F)C(O)C(C)O2)O1 [BCH2144, (1R, 3S)-1-(2',3',6'-trideoxy-3'-trifluoroacetamido-4'-hydroxy-1,5-dihydro-L-lyxohexopyranose-2-yl)-5,10-dioxo-3,4,5,10-tetrahydro-1H-naphtho-[2,3-c] pyran]
VLB/OV3 (VLB/OV3): 0.75

(1S, 2'S, 3R) and (1R, 2'S, 3S)-methyl-(1-[O-prolinol]-3,4,5,12-tetrahydronaphtho-[2,3-C]pyran-3-yl) ketone hydrochloride salt [BCH1658]
IC50 ([1]; 48 h with compound): 0.661 µM | IC50 [2]: 0.494 µM | IC50 (Lox (Melanoma)): 0.316 µM | IC50 [3]: 0.233 µM | IC50 [4]: 1.47 µM | VLB/OV3 (VLB/OV3): 6.31
